Test results as given in patent publication US20230286973A1, “PROTEIN SECRETION INHIBITORS” (KEZAR LIFE SCIENCES, priority 2020, published 2023).

Legend:
[1] = Liver Microsome Stability Assay (monkey); conditions: monkey liver microsomes, with NADPH, 1.0 uM compound
Description: (§1) Stability of a compound was assessed in the presence of liver microsomes from various sources—mouse, rat, monkey and human liver microsomes. 1.0 uM compound, 0.4% DMSO in 0.1 M Potassium Phosphate with 1.0 mg/mL liver microsomes, were incubated at 37° C. with or without 1 mM NADPH. The samples were quenched at 0, and 30 minutes.

[2] = system: PD1-ss+10aa/Gaussia Luciferase; assay: Dox-Induced PD1-ss-Gluc Assay; assay type: cell-based; conditions: 24 hr Dox induction; 293FRT/TO cells; read-out: 24 hr Dox Inducible PD1ssGluc 293FRT/TO: Mean IC50
Summary of the method: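 Doxycycline-induced expression of a PD1-ss+10aa/Gaussia luciferase reporter is measured in stable Flp-In 293 T-REx cells. Compound dilutions containing doxycycline are added one day after plating and incubated at 37 °C, 5% CO2. Values for unassigned stereocentres refer to stereoisomer mixtures.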

[3] = system: multiple myeloma cell line U266B1; assay: U266 Cell Viability Assay; assay type: cell-based, human; conditions: Homo sapiens, U-266, 48 h, U266B1 cells, Celltiter-Glo
Summary of the method: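 Cells grown in RPMI 1640 with 10% FBS, 2 mM glutamine and penicillin/streptomycin were exposed to compound dilutions in DMSO/media for 48 hours at 37° C., 5% CO2. Viability was read by CellTiter-Glo luminescence. Undefined stereocentres mean data for stereoisomer mixtures.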

[4] = system: HER3-ss+4aa/Gaussia Luciferase; assay: Dox-Induced Her3-ss-Gluc Assay; assay type: cell-based; conditions: 24 hr Dox induction; 293FRT/TO cells; read-out: 24 hr Dox Inducible Her3(ss + 4)Gluc 293FRT/TO: Mean IC50
Summary of the method: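 Stable Flp-In 293 T-REx line expressing Gaussia luciferase fused to the HER3 signal sequence plus 4 amino acids under tetracycline-regulated (T-REx) control. Cells plated the day before, then treated with compound dilutions in DMSO/media containing doxycycline and incubated at 37° C., 5% CO2.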

[5] = system: TNFα-FL/Gaussia Luciferase; assay: Dox Induced TNFα-FL-Gluc Assay; assay type: cell-based; conditions: for IC50: 24 hr Dox induction, 293FRT/TO cells, read-out: 24 hr Dox Inducible TNFaFLGluc 293FRT/TO: Mean IC50; for 24 hr Dox Inducible TNFaFLGluc 293FRT/TO: TNF/PD1: ratio of TNFaFLGluc IC50 to PD1ssGluc IC50
Summary of the method: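 Flp-In 293 T-REx cells stably expressing full-length TNFα (aa 1-233) fused at its C-terminus to Gaussia luciferase under tetracycline-regulated control were plated the day before assay. Compound dilutions in DMSO/media containing doxycycline were added and incubated at 37 °C, 5% CO2. Unspecified stereochemistry denotes stereoisomer mixtures.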

[6] = Liver Microsome Stability Assay (human); conditions: human liver microsomes, with NADPH, 1.0 uM compound
Description: as §1

[7] = system: IL-2-FL/Gaussia Luciferase; assay: Dox Induced IL2-FL-Gluc Assay; assay type: cell-based; conditions: for IC50: 24 hr Dox induction, 293FRT/TO cells, read-out: 24 hr Dox Inducible IL2FLGluc 293FRT/TO: Mean IC50; for 24 hr Dox Inducible IL2FLGluc 293FRT/TO: IL2/PD1: ratio of IL2FLGluc IC50 to PD1ssGluc IC50
Summary of the method: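 Flp-In 293 T-REx cells stably carrying doxycycline-inducible full-length IL-2 (aa 1-153) fused at its C-terminus to Gaussia luciferase, selected with hygromycin and blasticidin. Cells were plated the day before, then treated with compounds in DMSO/media containing doxycycline at 37° C, 5% CO2.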

[8] = system: multiple myeloma cell line NCI-H929; assay: H929 Cell Viability Assay; assay type: cell-based, human; conditions: Homo sapiens, NCI-H929, 48 h, NCI-H929 cells, Celltiter-Glo
Summary of the method: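 NCI-H929 cells, resuspended in RPMI 1640 with 10% FBS and 2 mM glutamine, were treated with compound dilutions in DMSO/media and incubated 48 hours at 37° C, 5% CO2. Viability was read by CellTiter-Glo luminescence. Compounds drawn without stereochemistry were tested as stereoisomer mixtures.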

[9] = Liver Microsome Stability Assay (rat); conditions: rat liver microsomes, with NADPH, 1.0 uM compound
Description: as §1

[10] = Liver Microsome Stability Assay (mouse); conditions: mouse liver microsomes, with NADPH, 1.0 uM compound
Description: as §1

Compound | Liver Microsome Stability (Multiple Species): Monkey - % Remaining after 30 min w/NADPH [1] [%] | IC50 [2] [nM] | EC50 [3] [nM] | IC50 [4] [nM] | IC50 [5] [nM] | 24 hr Dox Inducible TNFaFLGluc 293FRT/TO: TNF/PD1 [5] | Liver Microsome Stability (Multiple Species): Human - % Remaining after 30 min w/NADPH [6] [%] | IC50 [7] [nM] | 24 hr Dox Inducible IL2FLGluc 293FRT/TO: IL2/PD1 [7] | EC50 [8] [nM] | Liver Microsome Stability (Multiple Species): Rat - % Remaining after 30 min w/NADPH [9] [%] | Liver Microsome Stability (Multiple Species): Mouse - % Remaining after 30 min w/NADPH [10] [%]
O=C(Nc1nc([C@H]2CCCN2c2ccc(C3(O)CCC3)cc2)cs1)c1cccn1Cc1ccnc(F)c1 [Compound A114, (R)-1-((2-fluoropyridin-4-yl)methyl)-N-(4-(1-(4-(1-hydroxycyclobutyl)phenyl)pyrrolidin-2-yl)thiazol-2-yl)-1H-pyrrole-2-carboxamide] | 0.43 | 36.1 | > 25000 | 87.8 | 551 | 15.2 | 3.96 | 54.9 | 1.5 | 1020 | 8.6 | 13
Cc1cc(C(=O)Nc2nc([C@H]3CCCN3c3ccccc3)cs2)n(Cc2ccncc2)c1 [Compound A115, (R)-4-methyl-N-(4-(1-phenylpyrrolidin-2-yl)thiazol-2-yl)-1-(pyridin-4-ylmethyl)-1H-pyrrole-2-carboxamide] | 3.2 | 41.5 | 7270 | 89.3 | 587 | 14.1 | 14.6 | 122 | 2.9 | 2000 | 9.02 | 3.39
O=C(Nc1nc([C@H]2CCCN2c2ccc(Br)cc2)cs1)c1cccn1Cc1ccnc(F)c1 [Compound A116] | 18.9 | 2 | > 25000 | 4.14 | 39.5 | 19.7 | 45.3 | 4.93 | 2.5 | 160 | 37.7 | 60.7
CC(=O)N(C)CCOc1ccc(N2CCC[C@@H]2c2csc(NC(=O)c3cccn3Cc3ccnc(F)c3)n2)cc1 [Compound A117, (R)-1-((2-fluoropyridin-4-yl)methyl)-N-(4-(1-(4-(2-(N-methylacetamido)ethoxy)phenyl)pyrrolidin-2-yl)thiazol-2-yl)-1H-pyrrole-2-carboxamide] | 0.09 | 28.2 | > 25000 | 33.4 | 301 | 10.7 | 2.64 | 51 | 1.8 | 938 | 8.86 | 0.81
CC(=O)NCCOc1ccc(N2CCC[C@@H]2c2csc(NC(=O)c3cccn3Cc3ccnc(F)c3)n2)cc1 [Compound A121, (R)-N-(4-(1-(4-(2-acetamidoethoxy)phenyl)pyrrolidin-2-yl)thiazol-2-yl)-1-((2-fluoropyridin-4-yl)methyl)-1H-pyrrole-2-carboxamide] | 1.57 | 10.9 | > 25000 | 17.5 | 180 | 16.5 | 8.26 | 20.7 | 1.9 | 447 | 9.82 | 7.09
CC(=O)Nc1ccc(N2CCC[C@@H]2c2csc(NC(=O)c3cccn3Cc3cc(F)nc(F)c3)n2)cc1 [Compound A122, (R)-N-(4-(1-(4-acetamidophenyl)pyrrolidin-2-yl)thiazol-2-yl)-1-((2,6-difluoropyridin-4-yl)methyl)-1H-pyrrole-2-carboxamide] | 27.3 | 7.88 | 8020 | 17.4 | 191 | 24.2 | 35.8 | 16 | 2 | 354 | 18.8 | 17.1
NC(=O)Nc1ccc(N2CCC[C@@H]2c2csc(NC(=O)c3cccn3Cc3ccnc(F)c3)n2)cc1 [Compound A123, (R)-1-((2-fluoropyridin-4-yl)methyl)-N-(4-(1-(4-ureidophenyl)pyrrolidin-2-yl)thiazol-2-yl)-1H-pyrrole-2-carboxamide] | 31.6 | 8.21 | > 25000 | 18.1 | 143 | 17.4 | 49.3 | 24.3 | 3 | 289 | 44.7 | 23.3
CN(C)C(=O)Nc1ccc(N2CCC[C@@H]2c2csc(NC(=O)c3cccn3Cc3ccnc(F)c3)n2)cc1 [Compound A124, (R)-N-(4-(1-(4-(3,3-dimethylureido)phenyl)pyrrolidin-2-yl)thiazol-2-yl)-1-((2-fluoropyridin-4-yl)methyl)-1H-pyrrole-2-carboxamide] | 27.8 | 4.87 | > 25000 | 9.15 | 75.8 | 15.6 | 53.1 | 10.4 | 2.1 | 166 | 37.6 | 31.2
